# Target: T1, retinoic acid receptor-related orphan receptor γ (RORγ) (Homo sapiens, UniProt P51449)
# T1 sequence (P51449 265-507 limits assumed): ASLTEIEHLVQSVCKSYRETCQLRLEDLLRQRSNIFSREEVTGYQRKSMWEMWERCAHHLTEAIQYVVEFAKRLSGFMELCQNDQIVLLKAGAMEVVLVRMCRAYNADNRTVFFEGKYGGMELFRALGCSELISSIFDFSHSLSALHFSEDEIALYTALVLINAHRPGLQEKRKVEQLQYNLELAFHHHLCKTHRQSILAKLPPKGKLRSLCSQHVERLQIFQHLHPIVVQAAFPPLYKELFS
# Assay type: binding
smiles,measurement,value
C[C@H]1O[C@@H](O[C@H]2[C@@H](O)C[C@H](O[C@H]3[C@@H](O)C[C@H](O[C@H]4CC[C@@]5(C)[C@H](CC[C@@H]6[C@@H]5C[C@@H](O)[C@]5(C)[C@@H](C7=CC(=O)OC7)CC[C@]65O)C4)O[C@@H]3C)O[C@@H]2C)C[C@H](O)[C@@H]1O [digoxin],differential HDX mass spectrometry,"HDX) mass spectrometry analysis of the RORγ LBD in the presence and absence of digoxin, T1317, or SR2211"
